Measurements: PubChem BioAssay AID1918998 (Molecular Pharmacology Branch, DTP, NCI, 2023)
Where “and” joins values, the source holds several entries; their conditions need not be identical. Equal entries are not always repeated.

Test system: 521955-158-R2-J5-PDC complex spheroid growth
Assay: Anticancer human tumor 521955-158-R2-J5-PDC patient-derived pancreatic carcinoma cell line growth inhibition [AhR]
Settings: for viability, T/C: stronger effect = lower value
Text: Multicellular complex tumor spheroid response to aryl hydrocarbon receptor antagonists in combination with a variety of drugs and investigational agents in selected tumor cell lines
The current study was undertaken to assess response to aryl hydrocarbon receptor antagonists in combination with standard-of-care drugs and investigational agents in solid tumor complex spheroid models. Complex spheroids include a stromal component modeled by human endothelial cells (HUVEC) and fibroblasts modeled by human mesenchymal stem cells (MSCs). The concentration ranges selected for each drug and investigational agent were based upon clinically achievable concentrations if the clinical Cmax of the agent was known.
Compounds. The drugs and investigational agents: BAY 2416964 (NSC825713), GNF351 (NSC835774), CH-223191 (NSC835775), CPI-455 (NSC825282), aza-TdCyd (NSC777586), decitabine (NSC127716), belinostat (NSC758774), entinostat (NSC756642), pevonedistat (NSC761192), tazemetostat (NSC777109), talazoparib (NSC765396), olaparib (NSC753686), selinexor (NSC780203), nedisertib (M3814, NSC802822), bortezomib (NSC756655), venetoclax (NSC766270), doxorubicin (NSC123127), elimusertib (BAY189344, NSC800525), ceralasertib (AZD6738, NSC777638), TAK-243 (NSC785004), alisertib (NSC759677), etoposide (NSC141540), topotecan (NSC609699), eribulin (NSC707389), gemcitabine (NSC613327), carboplatin (NSC241240), cisplatin (NSC119875), and SN-38 (NSC673596) were obtained from the National Cancer Institute (NCI) Developmental Therapeutics Program Chemical Repository (32). The FDA-approved anticancer drug set is available from the Developmental Therapeutics Program at https://dtp.cancer.gov/organization/dscb/obtaining/available plates.htm. […] The stock solutions were prepared in dimethyl sulfoxide (DMSO, Sigma-Aldrich, St. Louis, MO, cat. D2650), except for the platinum compounds which were prepared in saline (Quality Biological, Gaithersburg, MD, cat. 114-055-101), at 800-fold the tested concentration and stored at -70 degrees C prior to their use. All drugs and investigational agents were tested over a range starting from a high concentration at or near the clinical Cmax and decreasing in half-log increments. If the clinical Cmax for an agent had not been determined, the highest concentration tested was 10 microM (Table 1).
Cell Culture. All cells were maintained in an incubator at 37 degrees C and 5% CO2 with 95% humidity. The PDC lines were cultured according to standard operating procedures established by the NCI PDMR (https://pdmr.cancer.gov). Briefly, all PDCs were thawed and cultured in Matrigel-coated flasks prepared with a working solution of 1X Ham's F-12 nutrient mix, without supplementation (Invitrogen, Waltham, MA, cat. 11765054), 100 U/mL penicillin-streptomycin (Invitrogen, cat. 15140122), and 2.5% Matrigel (Corning Inc., Corning, NY, cat. 354248) for the first three passages. All PDCs were cultured in complete DMEM/F-12 media containing advanced DMEM/F-12 (Invitrogen, cat. 12634028), 4.9% defined fetal bovine serum, heat inactivated (HyClone Laboratories Inc., Logan, UT, cat. SH30070.03HI), 389 ng/mL hydrocortisone (Sigma-Aldrich, cat. H4001), 9.7 ng/mL human EGF recombinant protein (Invitrogen, cat. PHG0313), 23.4 microg/mL adenine (Sigma-Aldrich, cat. A2786), 97.3 U/mL penicillin-streptomycin (Invitrogen, cat. 15140122), 1.9 mM L-glutamine (Invitrogen, cat. 25030081), and 9.7 microM Y-27632 dihydrochloride (Tocris Bioscience, Bristol, United Kingdom, cat. 1254). The PDCs were cultured in complete DMEM/F12 media without 10 microM Y-27632 dihydrochloride for at least two passages prior to the screen. The established cell lines NCI-H1341 and […] were cultured in DMEM/F-12, HEPES (Invitrogen, cat. 11330032), 5% defined fetal bovine serum (HyClone Laboratories Inc., cat. SH30070.03), ITS premix universal culture supplement [insulin (5 microg/mL), transferrin (5 microg/mL), and selenious acid (5 ng/mL)] […]
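For viability, T/C in this document: spheroids mix tumor cells with HUVEC endothelium and human MSC stroma; luminescence taken as viability surrogate after a week of drug exposure.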

Row | SMILES | IC50 (curve of compound) | viability, T/C (compound 0.0316 µM) | viability, T/C (compound 0.1 µM) | viability, T/C (compound 0.316 µM) | viability, T/C (compound 1 µM) | viability, T/C (compound 3.16 µM) | viability, T/C (compound 10 µM) | also measured
1 | CC(C)CC(NC(=O)C(Cc1ccccc1)NC(=O)c1cnccn1)B(O)O (stereo not drawn) | 16.5 nM and 13.1 nM and 4.71 nM |  |  |  |  |  |  | viability, T/C (compound 0.000949 µM): 93.7% and 85.5% and 84.3%; viability, T/C (compound 0.003 µM): 94.1% and 71.8% and 78.5%; viability, T/C (compound 0.03 µM): 1.41% and 1.04% and 0.32%; viability, T/C (compound 0.0949 µM): 0.32% and 0.33% and 0.22%; viability, T/C (compound 0.3 µM): 0.33% and 0.39% (2×)
2 | CC(CO)NC(=O)c1cc(-c2ccc(Cl)cc2)nn(-c2cnn(C)c2)c1=O (stereo not drawn) |  |  |  |  |  |  | 87.4% [middle of 19 runs] | IC50 (compound alone, run of 05/31/2022): > 10000 nM
3 | CC1(C)CCC(CN2CCN(c3ccc(C(=O)NS(=O)(=O)c4ccc(NCC5CCOCC5)c([N+](=O)[O-])c4)c(Oc4cnc5[nH]ccc5c4)c3)CC2)=C(c2ccc(Cl)cc2)C1 | > 10000 nM | 96.5% and 101% and 99% | 71.9% and 97.7% and 79.6% | 105% and 111% and 106% | 90.7% and 91% and 77.8% | 96% and 87.3% and 90.5% | 73.7% and 91.8% and 83.6% | 
4 | CC[C@@]1(O)C(=O)OCc2c1cc1n(c2=O)Cc2cc3c(CN(C)C)c(O)ccc3nc2-1 | 52.7 nM and 21.7 nM and 17.1 nM | 62.3% and 43.2% and 34.2% | 33.1% and 22.1% and 23.6% |  |  |  |  | viability, T/C (compound 0.000316 µM): 93.2% and 80.6% and 77.3%; viability, T/C (compound 0.001 µM): 90.4% and 95% and 67.7%; viability, T/C (compound 0.00316 µM): 80.1% and 84.2% and 84.3%; viability, T/C (compound 0.01 µM): 86.6% and 65.1% and 63.1%
5 | CCc1c2c(nc3ccc(O)cc13)-c1cc3c(c(=O)n1C2)COC(=O)[C@]3(O)CC | 6.31 nM and 6.13 nM and 2.39 nM |  |  |  |  |  |  | viability, T/C (compound 0.000949 µM): 73.4% and 63.5% and 74.2%; viability, T/C (compound 0.003 µM): 71% and 71.7% and 44.2%; viability, T/C (compound 0.00949 µM): 38.3% and 39.2% and 18.2%; viability, T/C (compound 0.03 µM): 22% and 28.9% and 12%; viability, T/C (compound 0.0949 µM): 16.9% and 22.7% and 10%; viability, T/C (compound 0.3 µM): 14.9% and 13.4% and 8.11%
6 | COc1cc(C2c3cc4c(cc3C(OC3OC5COC(C)OC5C(O)C3O)C3COC(=O)C23)OCO4)cc(OC)c1O (stereo not drawn) | 1380 nM and 706 nM and 636 nM | 92.5% and 85.2% and 81.7% | 98.5% and 79.4% and 77% | 76.4% and 80.6% and 66.2% | 56.4% and 36.8% and 39.9% | 36.9% and 23.6% and 22.1% | 31% and 20.7% and 19.1% | 
7 | COc1cc(Nc2ncc3c(n2)-c2ccc(Cl)cc2C(c2c(F)cccc2OC)=NC3)ccc1C(=O)O | > 10000 nM and 8540 nM | 77.4% and 67.8% and 86.3% | 85.5% and 81.5% and 77.1% | 58.4% and 76.3% and 50% | 57.4% and 60% and 62% | 82.1% and 66.4% and 67% | 66.9% and 47.4% and 49.2% | 

Further lines, with some results ahead:

Row | IC50 (curve of compound) | SMILES | viability, T/C (compound 0.0316 µM) | viability, T/C (compound 0.1 µM) | viability, T/C (compound 0.316 µM) | viability, T/C (compound 1 µM) | viability, T/C (compound 3.16 µM) | viability, T/C (compound 10 µM) | also measured
8 | > 10000 nM | CC(C)c1c(-c2ccccc2)nc2c(C#N)c[nH]n2c1=O | 86.8% and 83.8% and 96.4% | 103% and 100% and 89.5% | 96.2% and 76.9% and 87.5% | 85.3% and 75.7% and 64.5% | 88.3% and 95.4% and 70.7% | 83.1% and 71.7% and 86.4% | 
9 | 95.5 nM and 176 nM and 84.6 nM | CC1COCCN1c1cc(-c2ccnn2C)c2ccnc(-c3ccn[nH]3)c2n1 (stereo not drawn) | 97.8% and 84.1% and 95.1% | 48% and 79.2% and 42.4% | 15.5% and 19.4% and 16.3% | 19.2% and 18.6% and 16% |  |  | viability, T/C (compound 0.00316 µM): 96.3% and 94.8% and 101%; viability, T/C (compound 0.01 µM): 98.2% and 92.8% and 104%
10 | 2470 nM and 2110 nM and 2160 nM | CC1COCCN1c1cc(C2(S(C)(=N)=O)CC2)nc(-c2ccnc3[nH]ccc23)n1 (stereo not drawn) | 100% and 91.6% and 125% | 108% and 93.5% and 106% | 107% and 85.8% and 101% | 114% and 85.9% and 106% | 34.1% and 30.7% and 22.6% | 18.6% and 15.7% and 17.3% | 
11 | > 3000 nM | CCN(c1cc(-c2ccc(CN3CCOCC3)cc2)cc(C(=O)NCc2c(C)cc(C)[nH]c2=O)c1C)C1CCOCC1 |  |  |  |  |  |  | viability, T/C (compound 0.00949 µM): 104% and 116% and 106%; viability, T/C (compound 0.03 µM): 111% (2×) and 113%; viability, T/C (compound 0.0949 µM): 93.7% and 98.9% and 87%; viability, T/C (compound 0.3 µM): 97.9% and 94.6% and 81.7%; viability, T/C (compound 0.949 µM): 99.9% and 70.8% and 81.8%; viability, T/C (compound 3 µM): 96.3% and 84.7% and 88%
12 | > 10000 nM and 6700 nM and 6430 nM | COc1ccc([C@@H](O)c2cc(-c3ncnc4cc(N5CCOCC5)ccc34)c(F)cc2Cl)nn1 | 103% and 74.5% and 83% | 98.5% and 84.4% and 87.8% | 104% and 83.6% and 80.7% | 100% and 66.2% and 81.5% | 75.2% and 63.6% and 64.8% | 52% and 43.6% and 40.8% | 
